{"source": "patent US20200368247A1", "about": "“CENICRIVIROC FOR THE TREATMENT OF FIBROSIS” (Tobira Therapeutics, Inc., priority 2014, published 2020)", "details": "human, in vivo", "text": "Subjects with a history of HIV-2, hepatitis B and/or C, cirrhosis of the liver or any known active or chronic active liver disease were excluded from the study.\nMost AEs were mild or moderate (Grade 1 or Grade 2). […] None of the Grade ≥3 AEs (preferred terms) were reported in more than 1 subject. Table 28 provides an overview of deaths, SAES, AEs, AEs by severity, AEs related to study medication, and AE leading to discontinuation."}
{"smiles": "O=C1Nc2ccc(Cl)cc2[C@@](C#CC2CC2)(C(F)(F)F)O1", "note": "[EFV, efavirenz, reference compound]", "values": [{"measurement": "Fatigue, %", "setting": "48 week", "value": "(4%)"}, {"measurement": "Nausea, %", "setting": "48 week", "value": "(21%)"}, {"measurement": "Rash, %", "setting": "48 week", "value": "(18%)"}, {"measurement": "Subjects with AEs leading to discontinuation of study medication", "setting": "48 week", "value": 6, "unit": "n"}, {"measurement": "Subjects with AEs related to study medication", "setting": "48 week", "value": 20, "unit": "n"}, {"measurement": "Subjects with AEs, by worst grade severity: Grade 1", "setting": "48 week", "value": 10, "unit": "n"}, {"measurement": "Subjects with AEs, by worst grade severity: Grade 2", "setting": "48 week", "value": 13, "unit": "n"}, {"measurement": "Subjects with AEs, by worst grade severity: Grade 3", "setting": "48 week", "value": 3, "unit": "n"}, {"measurement": "Subjects with AEs, by worst grade severity: Grade 4", "setting": "48 week", "value": 0, "unit": "n"}, {"measurement": "Syphilis, %", "setting": "48 week", "value": "(11%)"}, {"measurement": "Upper respiratory tract infection, %", "setting": "48 week", "value": "(7%)"}, {"measurement": "AE leading to discontinuation: Disturbance in attention", "setting": "48 weeks", "value": 1, "unit": "n"}, {"measurement": "AE leading to discontinuation: Dizziness", "setting": "48 weeks", "value": 2, "unit": "n"}, {"measurement": "AE leading to discontinuation: Eye disorders", "setting": "48 weeks", "value": 1, "unit": "n"}, {"measurement": "AE leading to discontinuation: Gastrointestinal disorders", "setting": "48 weeks", "value": 1, "unit": "n"}, {"measurement": "AE leading to discontinuation: General disorders and administration site conditions", "setting": "48 weeks", "value": 0, "unit": "n"}, {"measurement": "AE leading to discontinuation: Hypoaesthesia", "setting": "48 weeks", "value": 1, "unit": "n"}, {"measurement": "AE leading to discontinuation: Malaise", "setting": "48 weeks", "value": 0, "unit": "n"}, {"measurement": "AE leading to discontinuation: Musculoskeletal and connective tissue disorders", "setting": "48 weeks", "value": 1, "unit": "n"}, {"measurement": "AE leading to discontinuation: Musculoskeletal discomfort", "setting": "48 weeks", "value": 1, "unit": "n"}, {"measurement": "AE leading to discontinuation: Nausea", "setting": "48 weeks", "value": 1, "unit": "n"}, {"measurement": "AE leading to discontinuation: Nervous system disorders", "setting": "48 weeks", "value": 4, "unit": "n"}, {"measurement": "AE leading to discontinuation: Photophobia", "setting": "48 weeks", "value": 1, "unit": "n"}, {"measurement": "AEs leading to discontinuation of study medication, %", "setting": "48 weeks", "value": 21, "unit": "%"}, {"measurement": "AEs leading to discontinuation of study medication, subjects", "setting": "48 weeks", "value": 6, "unit": "subjects"}, {"measurement": "Abnormal dreams, %", "setting": "48 weeks", "value": "(21%)"}, {"measurement": "Any AE leading to discontinuation of study drug", "setting": "48 weeks", "value": 6, "unit": "n"}, {"measurement": "Any Grade 3 AE", "setting": "48 weeks", "value": 3, "unit": "n"}, {"measurement": "Any Grade 4 AE", "setting": "48 weeks", "value": 1, "unit": "n"}, {"measurement": "Any SAE", "setting": "48 weeks", "value": 1, "unit": "n"}, {"measurement": "Dizziness, %", "setting": "48 weeks", "value": "(29%)"}, {"measurement": "Grade 3 or 4 AE: Abdominal pain", "setting": "48 weeks", "value": 0, "unit": "n"}, {"measurement": "Grade 3 or 4 AE: Blindness unilateral", "setting": "48 weeks", "value": 0, "unit": "n"}, {"measurement": "Grade 3 or 4 AE: Blood creatine phosphokinase increased", "setting": "48 weeks", "value": 0, "unit": "n"}, {"measurement": "Grade 3 or 4 AE: Cardiac disorders", "setting": "48 weeks", "value": 0, "unit": "n"}, {"measurement": "Grade 3 or 4 AE: Corneal infection", "setting": "48 weeks", "value": 0, "unit": "n"}, {"measurement": "Grade 3 or 4 AE: Depression", "setting": "48 weeks", "value": 1, "unit": "n"}, {"measurement": "Grade 3 or 4 AE: Dermatitis allergic", "setting": "48 weeks", "value": 1, "unit": "n"}, {"measurement": "Grade 3 or 4 AE: Ear and labyrinth disorders", "setting": "48 weeks", "value": 1, "unit": "n"}, {"measurement": "Grade 3 or 4 AE: Eye disorders", "setting": "48 weeks", "value": 0, "unit": "n"}, {"measurement": "Grade 3 or 4 AE: Gastrointestinal disorders", "setting": "48 weeks", "value": 0, "unit": "n"}, {"measurement": "Grade 3 or 4 AE: General disorders and administration site conditions", "setting": "48 weeks", "value": 0, "unit": "n"}, {"measurement": "Grade 3 or 4 AE: Infections and infestations", "setting": "48 weeks", "value": 0, "unit": "n"}, {"measurement": "Grade 3 or 4 AE: Investigations", "setting": "48 weeks", "value": 1, "unit": "n"}, {"measurement": "Grade 3 or 4 AE: Palpitations", "setting": "48 weeks", "value": 0, "unit": "n"}, {"measurement": "Grade 3 or 4 AE: Psychiatric disorders", "setting": "48 weeks", "value": 1, "unit": "n"}, {"measurement": "Grade 3 or 4 AE: Pyrexia", "setting": "48 weeks", "value": 0, "unit": "n"}, {"measurement": "Grade 3 or 4 AE: Skin and subcutaneous tissue disorders", "setting": "48 weeks", "value": 1, "unit": "n"}, {"measurement": "Grade 3 or 4 AE: Stress", "setting": "48 weeks", "value": 0, "unit": "n"}, {"measurement": "Grade 3 or 4 AE: Tinnitus", "setting": "48 weeks", "value": 1, "unit": "n"}, {"measurement": "Grade 3 or 4 AE: Weight decreased", "setting": "48 weeks", "value": 1, "unit": "n"}, {"measurement": "Insomnia, %", "setting": "48 weeks", "value": "(14%)"}, {"measurement": "Lymphadenopathy, %", "setting": "48 weeks", "value": "(14%)"}, {"measurement": "Nasopharyngitis, %", "setting": "48 weeks", "value": "(4%)"}, {"measurement": "SAE: Blindness unilateral", "setting": "48 weeks", "value": 0, "unit": "n"}, {"measurement": "SAE: Corneal infection", "setting": "48 weeks", "value": 0, "unit": "n"}, {"measurement": "SAE: Depression", "setting": "48 weeks", "value": 1, "unit": "n"}, {"measurement": "SAE: Eye disorders", "setting": "48 weeks", "value": 0, "unit": "n"}, {"measurement": "SAE: Gastroenteritis", "setting": "48 weeks", "value": 0, "unit": "n"}, {"measurement": "SAE: Infections and infestations", "setting": "48 weeks", "value": 0, "unit": "n"}, {"measurement": "SAE: Psychiatric disorders", "setting": "48 weeks", "value": 1, "unit": "n"}, {"measurement": "Subjects with serious AEs", "setting": "48 weeks", "value": 1, "unit": "n"}, {"measurement": "Subjects with ≥1 AE", "setting": "48 weeks", "value": 27, "unit": "n"}]}
